Patent publication EP3088535A1 (priority 2015, dated 2016)

What was measured:
[1] = target: Reverse Transcriptase from Patient #A infected by HIV-1 (Human immunodeficiency virus type 1, UniProt P04585)
Description: (§1) Transformed cells (that grew in TRP lacking media) were incubated for 16h with shacking in 13 mL rich medium (Yeast extract Peptone Dextrose) at a final cell density 0,06 OD / mL.
(§2) 13 mL cell culture supernatant was collected after centrifugation at 1500 rpm for 5min and kept as the source for in vitro Reverse Transcriptase resistance analysis.
(§3) HIV Reverse Transcriptase resistance to reverse transcriptase inhibitors was analyzed as follows.
(§4) In a final volume of 150µl, 120µl of transformed cell's medium were incubated in 56 mM Tris-HCl, 56 mM KCl and 9 mM MgCl2 with: • 1.76µg of MS2 RNA (SEQ ID NO: 20), and • 0.059 pmoles of 5'biotinylated primer of SEQ ID NO: 19, and • dNTP mixture (1.5pmoles of each one; dATP, dGTP, dCTP, and dTTP), and • 0.19 pmoles of DIG (digoxigenin) modified dUTP, and • 30 µl of one of each concentration out of eight serial one to one dilutions of Reverse Transcriptase inhibitors in water (in this way the inhibitor was further diluted […]).
(§5) The Reverse Transcriptase inhibitor's one to one dilution started at the following concentrations:
(§6) The mixture reaction was incubated at 37°C for an overnight period (16 - 20 hours).
(§7) At the end of the incubation, each reaction mixture was transferred to a streptavidin coated flat bottom well for ELISA based RNA retro-transcribed DNA determination.
(§8) Wells were washed three times with 200µl of wash buffer (0.1%BSA and 0.05% Tween in PBS) before 30min incubation at room temperature with 100µl of a 1:1000 dilution of Peroxidase -conjugated monoclonal mouse anti-DIG (from Jackson Immunosearch ref N°JIR 200-032-156) in wash buffer.

[2] = target: Reverse Transcriptase from Patient #B infected by HIV-1 (Human immunodeficiency virus type 1, UniProt P04585)
Description: as §1, §2, §3, §4, §5, §6, §7, §8

[3] = target: Reverse Transcriptase from Patient #C infected by HIV-1 (Human immunodeficiency virus type 1, UniProt P04585)
Description: as §1, §2, §3, §4, §5, §6, §7, §8

Measured: sensitivity of RT to inhibitor compared with the reference isolate HIV-1 IIIB

Cc1ccnc2c1NC(=O)c1cccnc1N2C1CC1 [NVP, nevirapine]
more sensitive: all assays above
